One data set concerns CA1 pyramidal neurons. Briefly: Long term depression, whole cell recording in hippocampal slices. It counts as cell-based. The note with it: 4 µM internally, low frequency stimulation, wild-type mice hippocampal slices. Here is the method: Adult mice aged 8 to 9 weeks were decapitated using a guillotine and sliced at the first cervical vertebra. A cut was made through the skin in the middle of the scalp and the skull plate. The skull plate was separated and the brain was removed, and immediately submerged in iced-cold oxygenated Dissection Buffer (211 mM Sucrose, 2.6 mM KCl, 26 mM NaHCO3, 1.25 mM NaH2PO4, 5 mM MgCl2, 0.5 mM CaCl2, and 10 mM glucose) for 2 minutes. The brain was placed on an ice-cold cutting station and the brain cut along the longitudinal cerebral fissure to separate the two hemispheres. Hemispheres were placed in iced-cold oxygenated Dissection Buffer andand cerebellum was pulled away to reveal the hippocampus. The two hemispheres were arranged so that the hippocampi faced each other like two columns and the whole structure was glued onto a mounting plate, and slices were sectioned at 400 µm thickness and transferred to a holding chamber with oxygenated Recovery Buffer (124 mM NaCl, 3 mM KCl, 26 mM NaHCO3, 1.25 mM NaH2PO4, 2 mM MgSO4, 4 mM CaCl2, 10 mM glucose, and 1 mM kynurenic acid). Slices were allowed to recover for 1–1.5 h at room temperature before electrophysiology experiments. Whole-Cell current-clamp measurements on hippocampal CA1 pyramidal neurons were carried out at 32 to 33 °C. The cells were held at −60 mV potential and schaffer collateral fibers were stimulated. […]

A further data set in a line: Solubility comparison. The note with it: compared with compound 1z. It counts as physicochemical.
The target in the next data set is PICK1 (Homo sapiens, UniProt Q9NRD5). Briefly: PICK1 competition (displacement) assay with tracer BIO424.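 Further: in vitro displacement assay with baculovirus-expressed, truncated dimeric PICK1 missing its final 59 residues.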 The note with it: IC50, BIO424 as tracer.
Sequence of PICK1 (Q9NRD5 1-356): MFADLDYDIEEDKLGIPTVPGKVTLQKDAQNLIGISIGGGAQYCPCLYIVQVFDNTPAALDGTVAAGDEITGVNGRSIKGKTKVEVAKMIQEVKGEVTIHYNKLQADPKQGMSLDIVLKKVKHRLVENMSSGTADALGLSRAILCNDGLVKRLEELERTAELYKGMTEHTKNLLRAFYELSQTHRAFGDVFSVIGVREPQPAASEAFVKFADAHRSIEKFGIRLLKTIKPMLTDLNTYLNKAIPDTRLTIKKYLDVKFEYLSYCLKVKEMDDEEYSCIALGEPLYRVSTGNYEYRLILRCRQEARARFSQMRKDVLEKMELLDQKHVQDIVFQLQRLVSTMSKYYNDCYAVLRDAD

We go through one compound from publication PMC6128908, “Potent PDZ-Domain PICK1 Inhibitors that Modulate Amyloid Beta-Mediated Synaptic Dysfunction” (Scientific Reports, 2018).

Protocol for PICK1: Fluorescence polarization (FP) and competition binding assays were used to determine PDZ binding affinities and selectivity of compounds as described in Alfonso et al.[20]. Briefly, a fixed concentration (5 nM) of Fluorescein isothiocyanate-labeled peptides comprising the C-terminal amino acids of GluA2 (875–883) and N-methyl-D-aspartate receptor subunit 2B (1474–1482) was used. Binding FP assays were carried out using increasing concentrations of recombinant full-length PICK1, postsynaptic density 95 (PSD95) PDZ 1–2, or Shank3 PDZ, and normalized by subtracting the tracer-only background.
Two recombinant PICK1 constructs were used in this study. […] A truncated, dimeric form of PICK1 lacking the last 59 residues was expressed in baculovirus and purified to homogeneity for use in the in vitro displacement assay. In general, both proteins were purified by Nickel chromatograpy followed by size exclusion chromatography.

What is called IC50 is the midpoint of a concentration-inhibition curve. In the case of `CC(c1ccccc1C(F)(F)F)N1CCC(C(=O)N[C@@H](CC2CC2)C(=O)O)(c2ccc(Br)cc2)CC1` (stereo partly drawn) [1r], in the data set on CA1 pyramidal neurons, the “induction of long term depression (LTD)” value is recorded as “LTD was not induced”. Also, in the data set “Solubility comparison”, the solubility result is listed as “better than compound 1z”. In addition, the half-maximal inhibitory concentration (IC50) at PICK1 is 1230 nM.
